# Measurements: patent US7683171B2, “1H-imidazo[4,5-d]thieno[3,2-b]pyridine based tricyclic compounds and pharmaceutical compositions comprising same” (Bristol-Myers Squibb Company, priority 2005, dated 2010)
# System: T98
# Experiment: Ames testing
# Assay type: cell-based
# Details: T98 with S9 activation
compound,measurement,value
"Cl.Cn1cnc2c(N)nc3cc(-c4cccc(F)c4)sc3c21 [Example A5, 7-(3-Fluorophenyl)-1-methyl-1H-imidazo[4,5-d]thieno[3,2-b]pyridin-4-amine hydrochloride salt]",Ames testing,positive
